# Laboratory results taken from patent publication US20230117324A1, “OXAZINE MONOACYLGLYCEROL LIPASE (MAGL) INHIBITORS” (Hoffmann-La Roche Inc., priority 2018, published 2023).
# Molecular target: T1, MAGL (Homo sapiens, UniProt Q99685)
# T1 sequence (Q99685 1-303): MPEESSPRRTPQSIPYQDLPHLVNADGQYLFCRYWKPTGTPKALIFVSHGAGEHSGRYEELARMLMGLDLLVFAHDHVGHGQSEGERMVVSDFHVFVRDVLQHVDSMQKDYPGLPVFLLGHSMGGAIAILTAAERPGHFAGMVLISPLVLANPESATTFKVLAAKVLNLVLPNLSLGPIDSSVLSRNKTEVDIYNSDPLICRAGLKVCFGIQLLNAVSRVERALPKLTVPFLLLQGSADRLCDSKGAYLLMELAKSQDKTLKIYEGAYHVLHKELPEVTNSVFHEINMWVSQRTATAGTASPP
# Experiment: MAGL inhibition, 2-AG assay (hydrolysis of 2-arachidonoylglycerol, arachidonic acid by mass spectrometry)
# Format: biochemical
# Settings: 2-AG assay (footnote [b])
# In short: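 Human MAGL […] was preincubated 15 min at RT with compound ([…], 3-fold steps) in 50 mM Tris, 1 mM EDTA, 0.01% Tween. 2-AG (8 μM) was then added for 30 min at RT. Arachidonic acid was quantified by RapidFire SPE–triple quadrupole MS in negative ESI as its ratio to a d8-arachidonic acid standard.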
row,Structure (SMILES),IC50 [nM]
1,"O=C1CO[C@H]2CCN(C(=O)N3CCC(c4cccc(Br)c4)C3)C[C@H]2N1 (stereo partly drawn) [Example 164, (4aR,8aS)-6-(3-(3-Bromophenyl)pyrrolidine-1-carbonyl)hexahydro-2H-pyrido[4,3-b][1,4]oxazin-3(4H)-one]",82
2,"CCC1CCCN1c1ccc(C2CN(C(=O)N3CC[C@@H]4OCC(=O)N[C@@H]4C3)C2)cc1 (stereo partly drawn) [Example 165, (4aR,8aS)-6-[3-[4-(2-Ethylpyrrolidin-1-yl)phenyl]azetidine-1-carbonyl]-4,4a,5,7,8,8a-hexahydropyrido[4,3-b][1,4]oxazin-3-one]",0.4
3,"N#Cc1cccc(Cl)c1-c1ccc(C2CN(C(=O)N3CC[C@@H]4OCC(=O)N[C@@H]4C3)C2)cc1 [Example 166, 2-[4-[1-[(4aR,8aS)-3-Oxo-4,4a,5,7,8,8a-hexahydropyrido[4,3-b][1,4]oxazine-6-carbonyl]azetidin-3-yl]phenyl]-3-chloro-benzonitrile]",0.1
4,"O=C1CO[C@H]2CCN(C(=O)N3CC(c4ccc(N5CCCC5C5CC5)cc4)C3)C[C@H]2N1 (stereo partly drawn) [Example 167, (4aR,8aS)-6-(3-(4-(2-Cyclopropylpyrrolidin-1-yl)phenyl)azetidine-1-carbonyl)hexahydro-2H-pyrido[4,3-b][1,4]oxazin-3(4H)-one]",0.2
5,"O=C1CO[C@H]2CCN(C(=O)N3CCN(c4ccc(Br)cc4)CC3)C[C@H]2N1 [Example 168, (4aR,8aS)-6-(4-(4-Bromophenyl)piperazine-1-carbonyl)hexahydro-2H-pyrido[4,3-b][1,4]oxazin-3(4H)-one]",3700
6,"O=C1CO[C@H]2CCN(C(=O)N3CCC(c4ccc(-c5ccc(Cl)cc5Cl)cc4)CC3)C[C@H]2N1 [Example 169, (4aR,8aS)-6-(4-(2′,4′-Dichloro-[1,1′-biphenyl]-4-yl)piperidine-1-carbonyl)hexahydro-2H-pyrido[4,3-b][1,4]oxazin-3(4H)-one]",4
7,"O=C1CO[C@H]2CCN(C(=O)N3CC(c4ccc(N5CC6CC6C5)cc4)C3)C[C@H]2N1 (stereo partly drawn) [Example 170, (4aR,8aS)-6-(3-(4-(3-Azabicyclo[3.1.0]hexan-3-yl)phenyl)azetidine-1-carbonyl)hexahydro-2H-pyrido[4,3-b][1,4]oxazin-3(4H)-one]",2
8,"O=C1CO[C@H]2CCN(C(=O)N3CC(c4cccc(OC(F)(F)F)c4)C3)C[C@H]2N1 [Example 171, (4aR,8aS)-6-(3-(3-(Trifluoromethoxy)phenyl)azetidine-1-carbonyl)hexahydro-2H-pyrido[4,3-b][1,4]oxazin-3(4H)-one]",44
9,"O=C1CO[C@H]2CCN(C(=O)N3CC(c4ccc(N5CC(OCC(F)(F)F)C5)cc4)C3)C[C@H]2N1 [Example 172, (4aR,8aS)-6-(3-(4-(3-(2,2,2-Trifluoroethoxy)azetidin-1-yl)phenyl)azetidine-1-carbonyl)hexahydro-2H-pyrido[4,3-b][1,4]oxazin-3(4H)-one]",4
10,"CS(=O)(=O)c1cc(Cl)ccc1-c1ccc(C2CN(C(=O)N3CC[C@@H]4OCC(=O)N[C@@H]4C3)C2)cc1 [Example 173, (4aR,8aS)-6-(3-(4′-Chloro-2′-(methylsulfonyl)-[1,1′-biphenyl]-4-yl)azetidine-1-carbonyl)hexahydro-2H-pyrido[4,3-b][1,4]oxazin-3(4H)-one]",0.4
11,"O=C1CO[C@H]2CCN(C(=O)N3CC(c4ccc(N5CCCC5C(F)(F)F)nc4)C3)C[C@H]2N1 (stereo partly drawn) [Example 174, (4aR,8aS)-6-(3-(6-(2-(Trifluoromethyl)pyrrolidin-1-yl)pyridin-3-yl)azetidine-1-carbonyl)hexahydro-2H-pyrido[4,3-b][1,4]oxazin-3(4H)-one]",7
12,"O=C1CO[C@H]2CCN(C(=O)N3CC(c4ccc(N5CCC6(CC6)C5)cc4)C3)C[C@H]2N1 [Example 179, (4aR,8aS)-6-(3-(4-(5-Azaspiro[2.4]heptan-5-yl)phenyl)azetidine-1-carbonyl)hexahydro-2H-pyrido[4,3-b][1,4]oxazin-3(4H)-one]",1
13,"O=C1CO[C@H]2CCN(C(=O)N3CC(c4ccc(S(F)(F)(F)(F)F)cc4)C3)C[C@H]2N1 [Example 180, (4aR,8aS)-6-(3-(4-(Pentafluoro-16-sulfaneyl)phenyl)azetidine-1-carbonyl)hexahydro-2H-pyrido[4,3-b][1,4]oxazin-3(4H)-one]",9
14,"O=C1CO[C@H]2CCN(C(=O)N3CC(c4ccc(Cl)cn4)C3)C[C@H]2N1 [Example 181, (4aR,8aS)-6-(3-(5-Chloropyridin-2-yl)azetidine-1-carbonyl)hexahydro-2H-pyrido[4,3-b][1,4]oxazin-3(4H)-one]",593
15,"O=C1CO[C@H]2CCN(C(=O)N3CC(c4ccc(OC(F)(F)F)cc4F)C3)C[C@H]2N1 [Example 182, (4aR,8aS)-6-(3-(2-Fluoro-4-(trifluoromethoxy)phenyl)azetidine-1-carbonyl)hexahydro-2H-pyrido[4,3-b][1,4]oxazin-3(4H)-one]",8
16,"COc1ccc(C2CN(C(=O)N3CC[C@@H]4OCC(=O)N[C@@H]4C3)C2)cn1 [Example 183, (4aR,8aS)-6-[3-(6-Methoxypyridin-3-yl)azetidine-1-carbonyl]-4,4a,5,7,8,8a-hexahydropyrido[4,3-b][1,4]oxazin-3-one]",1600
17,"O=C1CO[C@H]2CCN(C(=O)N3CCC(c4ccc(Br)cc4)C3)C[C@H]2N1 (stereo partly drawn) [Example 184, (4aR,8aS)-6-(3-(4-Bromophenyl)pyrrolidine-1-carbonyl)hexahydro-2H-pyrido[4,3-b][1,4]oxazin-3(4H)-one]",146
18,"O=C1CO[C@H]2CCN(C(=O)N3CC(c4ccccc4)C3)C[C@H]2N1 [Example 185, (4aR,8aS)-6-(3-Phenylazetidine-1-carbonyl)hexahydro-2H-pyrido[4,3-b][1,4]oxazin-3(4H)-one]",139
19,"O=C1CO[C@H]2CCN(C(=O)N3CCC(c4ccccc4)CC3)C[C@H]2N1 [Example 186, (4aR,8aS)-6-(4-Phenylpiperidine-1-carbonyl)hexahydro-2H-pyrido[4,3-b][1,4]oxazin-3(4H)-one]",1000
20,"O=C1CO[C@H]2CCN(C(=O)N3CC(c4ccc(CC(F)(F)F)cc4)C3)C[C@H]2N1 [Example 187, (4aR,8aS)-6-[3-[4-(2,2,2-Trifluoroethyl)phenyl]azetidine-1-carbonyl]-4,4a,5,7,8,8a-hexahydropyrido[4,3-b][1,4]oxazin-3-one]",1
21,"O=C1CO[C@H]2CCN(C(=O)N3CC(c4ccc(C5(C(F)(F)F)CC5)cc4)C3)C[C@H]2N1 [Example 188, (4aR,8aS)-6-[3-[4-[1-(Trifluoromethyl)cyclopropyl]phenyl]azetidine-1-carbonyl]-4,4a,5,7,8,8a-hexahydropyrido[4,3-b][1,4]oxazin-3-one]",4
22,"O=C1CO[C@H]2CCN(C(=O)N3CC(c4ccc(N5CC6(C5)CC(F)(F)C6)cc4)C3)C[C@H]2N1 [Example 191, (4aR,8aS)-6-[3-[4-(6,6-Difluoro-2-azaspiro[3.3]heptan-2-yl)phenyl]azetidine-1-carbonyl]-4,4a,5,7,8,8a-hexahydropyrido[4,3-b][1,4]oxazin-3-one]",0.5
23,"O=C1CO[C@H]2CCN(C(=O)N3CC(c4ccc(N5CC6CCC(C5)O6)cc4)C3)C[C@H]2N1 [Example 192, (4aR,8aS)-6-(3-(4-(8-Oxa-3-azabicyclo[3.2.1]octan-3-yl)phenyl)azetidine-1-carbonyl)hexahydro-2H-pyrido[4,3-b][1,4]oxazin-3(4H)-one]",8
24,"O=C1CO[C@H]2CCN(C(=O)N3CC(c4ccc(-c5ccc(Cl)cc5Cl)cn4)C3)C[C@H]2N1 [Example 193, (4aR,8aS)-6-(3-(5-(2,4-Dichlorophenyl)pyridin-2-yl)azetidine-1-carbonyl)hexahydro-2H-pyrido[4,3-b][1,4]oxazin-3(4H)-one]",1
25,"O=C1CO[C@H]2CCN(C(=O)N3CC(c4ccc(N5CCCCC5)cc4)C3)C[C@H]2N1 [Example 196, (4aR,8aS)-6-[3-[4-(1-Piperidyl)phenyl]azetidine-1-carbonyl]-4,4a,5,7,8,8a-hexahydropyrido[4,3-b][1,4]oxazin-3-one]",2
26,"CC1(O)CN(c2ccc(C3CN(C(=O)N4CC[C@@H]5OCC(=O)N[C@@H]5C4)C3)cc2)C1 [Example 199, (4aR,8aS)-6-[3-[4-(3-Hydroxy-3-methylazetidin-1-yl)phenyl]azetidine-1-carbonyl]-4,4a,5,7,8,8a-hexahydropyrido[4,3-b][1,4]oxazin-3-one]",278
27,"CC1(F)CN(c2ccc(C3CN(C(=O)N4CC[C@@H]5OCC(=O)N[C@@H]5C4)C3)cc2)C1 [Example 200, (4aR,8aS)-6-[3-[4-(3-Fluoro-3-methyl-azetidin-1-yl)phenyl]azetidine-1-carbonyl]-4,4a,5,7,8,8a-hexahydropyrido[4,3-b][1,4]oxazin-3-one]",14
28,"O=C1CO[C@H]2CCN(C(=O)N3CC(c4ccc(N5CC(F)C5)cc4)C3)C[C@H]2N1 [Example 201, (4aR,8aS)-6-(3-(4-(3-Fluoroazetidin-1-yl)phenyl)azetidine-1-carbonyl)hexahydro-2H-pyrido[4,3-b][1,4]oxazin-3(4H)-one]",101
29,"O=C1CO[C@H]2CCN(C(=O)N3CC(c4ccc(OC(F)(F)F)c(F)c4)C3)C[C@H]2N1 [Example 202, (4aR,8aS)-6-(3-(3-Fluoro-4-(trifluoromethoxy)phenyl)azetidine-1-carbonyl)hexahydro-2H-pyrido[4,3-b][1,4]oxazin-3(4H)-one]",12
